# Source: article PMC10946790, “A Functional Chemiluminescent Probe for in Vivo Imaging of Natural Killer Cell Activity Against Tumours” (Angewandte Chemie (Weinheim an Der Bergstrasse, Germany), 2021)
# Where a SMILES comes first, the peptide text is derived from it. The star is where a group is joined. AMC = Cc1cc(=O)oc2cc(N*)ccc12
# Target: T1, hr‐granzyme B (Homo sapiens, UniProt P10144)
# T1 construct: in the absence and presence of active human recombinant (hr)‐granzyme B
# Assay: Time-course signal-to-noise ratios after reaction with granzyme B
# Type: biochemical
# Conditions: probe 25 μM, hr-granzyme B 20 nM, aqueous buffer, 37 °C, over 30 minutes; mean ± SEM, n=6
# Method: In vitro characterisation assays. Enzymatic assays were run in a 384-well format in a PCR opaque microplate (Thermo Scientific). All experiments were performed at least in triplicate. Dilutions and reactions using human GZM B and human neutrophil elastase were prepared in 50 mM Tris-HCl and 100 mM NaCl (pH 7.4). GZM A assays were performed in 25 mM HEPES, 0.1% CHAPS and 10 mM DTT (pH 7.5). Dilutions and incubations with CASP8 and CASP9 were prepared in 50 mM HEPES, 100 mM NaCl, 0.1% Triton X-100, 10 mM DTT, 1 mM EDTA and 10% glycerol (pH 7.4). Any other tested biomolecules were prepared in PBS. Proteolytic activity was determined by calculating the fold change in chemiluminescence signal (or fluorescence signal in the case of Ac - IEPD-AMC) over background signal provided by the corresponding dilution of the probes with the enzyme using a spectrophotometer (Synergy H1 Hybrid Reader, BioTek) at 37°C.
# Unless otherwise stated, probes were utilized at a concentration of 100 μM. Enzyme concentration used: 20 nM (except CASP9, which was used at 200 nM) and all other biomolecules were tested at 100 μM. In the case where an inhibitor was used, the enzyme was pre-incubated for 1 h with the inhibitor (100 µM) before addition of probe 1.
# Cell culture. […]
# T1 sequence (P10144 21-247): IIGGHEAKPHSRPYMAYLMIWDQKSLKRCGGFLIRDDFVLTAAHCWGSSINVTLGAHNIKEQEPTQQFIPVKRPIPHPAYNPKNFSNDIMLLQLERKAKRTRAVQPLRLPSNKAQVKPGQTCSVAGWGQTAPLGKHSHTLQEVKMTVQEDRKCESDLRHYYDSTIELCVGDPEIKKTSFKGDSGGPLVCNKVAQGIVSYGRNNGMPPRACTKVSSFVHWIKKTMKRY
smiles,measurement,value
CC[C@H](C)[C@H](NC(C)=O)C(=O)N[C@@H](CCC(=O)O)C(=O)N1CCC[C@H]1C(=O)N[C@@H](CC(=O)O)C(=O)Nc1ccc2c(C)cc(=O)oc2c1 [Ac‐IEPD‐AMC] (Ac-IEPD-{AMC}),"Signal‐to‐noise (S/N) ratio, fluorescence",under 5
